How the values were obtained:
[1] = xn = mol fraction of the nth substance listed; conditions: 100.8 kPa, Liquid
[2] = refractive index (Na D-line) (dimensionless); xn = mol fraction of the nth substance listed; conditions: 100.8 kPa, Liquid, Standard Abbe refractometry

CC(C)CC(C)(C)C [2,2,4-trimethylpentane] + CCO
Conditions	mass density, 298.15 K [kg/m3]	mass density, 308.15 K [kg/m3]	mass density, 318.15 K [kg/m3]	refractive index, 298.15 K	refractive index, 308.15 K	refractive index, 318.15 K	viscosity, 298.15 K [mPa·s]	viscosity, 308.15 K [mPa·s]	viscosity, 318.15 K [mPa·s]
[1], x2 = 0	687.89	679.55	671.1	–	–	–	0.474	0.425	0.38
[1], x2 = 0.05	688.94	680.44	671.89	–	–	–	0.472	0.421	0.376
[1], x2 = 0.1	690.43	681.85	673.2	–	–	–	0.47	0.419	0.377
[1], x2 = 0.15	692.16	683.55	674.81	–	–	–	0.476	0.423	0.378
[1], x2 = 0.2	694.08	685.46	676.67	–	–	–	0.485	0.428	0.381
[1], x2 = 0.25	696.22	687.59	678.74	–	–	–	0.494	0.435	0.387
[1], x2 = 0.3	698.58	689.91	681.05	–	–	–	0.506	0.443	0.392
[1], x2 = 0.35	701.19	692.48	683.6	–	–	–	0.52	0.453	0.401
[1], x2 = 0.4	704.04	695.33	686.41	–	–	–	0.538	0.469	0.413
[1], x2 = 0.45	707.19	698.47	689.53	–	–	–	0.558	0.487	0.426
[1], x2 = 0.5	710.69	701.95	693	–	–	–	0.583	0.507	0.443
[1], x2 = 0.55	714.59	705.81	696.87	–	–	–	0.611	0.53	0.461
[1], x2 = 0.6	718.95	710.14	701.18	–	–	–	0.642	0.555	0.483
[1], x2 = 0.65	723.82	714.99	706	–	–	–	0.675	0.583	0.505
[1], x2 = 0.7	729.34	720.46	711.43	–	–	–	0.71	0.614	0.528
[1], x2 = 0.75	735.56	726.64	717.6	–	–	–	0.75	0.647	0.557
[1], x2 = 0.8	742.67	733.71	724.66	–	–	–	0.797	0.685	0.589
[1], x2 = 0.85	750.87	741.88	732.81	–	–	–	0.853	0.731	0.626
[1], x2 = 0.9	760.47	751.45	742.33	–	–	–	0.916	0.784	0.668
[1], x2 = 0.95	771.78	762.83	753.76	–	–	–	0.989	0.843	0.712
[2], x2 = 0	–	–	–	1.38898	1.38398	1.37898	–	–	–
[2], x2 = 0.05	–	–	–	1.38825	1.38325	1.37815	–	–	–
[2], x2 = 0.1	–	–	–	1.38749	1.38247	1.37738	–	–	–
[2], x2 = 0.15	–	–	–	1.38668	1.38169	1.37662	–	–	–
[2], x2 = 0.2	–	–	–	1.38586	1.38087	1.37584	–	–	–
[2], x2 = 0.25	–	–	–	1.38499	1.38002	1.37503	–	–	–
[2], x2 = 0.3	–	–	–	1.38408	1.37913	1.37417	–	–	–
[2], x2 = 0.35	–	–	–	1.38311	1.37819	1.37326	–	–	–
[2], x2 = 0.4	–	–	–	1.38208	1.37719	1.37229	–	–	–
[2], x2 = 0.45	–	–	–	1.38098	1.37612	1.37125	–	–	–
[2], x2 = 0.5	–	–	–	1.3798	1.37497	1.37013	–	–	–
[2], x2 = 0.55	–	–	–	1.37853	1.37373	1.36892	–	–	–
[2], x2 = 0.6	–	–	–	1.37716	1.37239	1.36762	–	–	–
[2], x2 = 0.65	–	–	–	1.37567	1.37093	1.36621	–	–	–
[2], x2 = 0.7	–	–	–	1.37403	1.36933	1.36466	–	–	–
[2], x2 = 0.75	–	–	–	1.37223	1.36757	1.36295	–	–	–
[2], x2 = 0.8	–	–	–	1.37023	1.36562	1.36106	–	–	–
[2], x2 = 0.85	–	–	–	1.36799	1.36345	1.35896	–	–	–
[2], x2 = 0.9	–	–	–	1.36547	1.36102	1.3566	–	–	–
[2], x2 = 0.95	–	–	–	1.36261	1.35826	1.35396	–	–	–

Source: the NIST ThermoML archive (doi:10.1021/je0501639)
